Assay results: US20240150293A1, “SPIROCYCLOHEXANE DERIVATIVES, PHARMACEUTICAL COMPOSITIONS CONTAINING THEM AND THEIR USES AS ANTI-APOPTOTIC INHIBITORS” (LES LABORATOIRES SERVIER, priority 2021, published 2024)

Biological target: Mcl-1 protein (UniProtKB Q07820) (Homo sapiens (Human), UniProt Q07820)
Experiment: Inhibition of Mcl-1 by the fluorescence polarisation assay (Example A, Method A)
Format: binding
Conditions: fluorescence polarization assay
Procedure, shortened: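 Protein (5 nM) and fluorescein-tagged peptide tracer (1 nM) incubated with 11-point compound series for 2 h at room temperature in HEPES/NaCl/Tween 20 buffer, pH 7.4, 5% DMSO. Displacement read as decrease in polarisation; IC50 fitted by 4-parameter logistic, converted to Ki (cKi or eKi).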

Chain of Mcl-1 protein (Q07820 whole entry): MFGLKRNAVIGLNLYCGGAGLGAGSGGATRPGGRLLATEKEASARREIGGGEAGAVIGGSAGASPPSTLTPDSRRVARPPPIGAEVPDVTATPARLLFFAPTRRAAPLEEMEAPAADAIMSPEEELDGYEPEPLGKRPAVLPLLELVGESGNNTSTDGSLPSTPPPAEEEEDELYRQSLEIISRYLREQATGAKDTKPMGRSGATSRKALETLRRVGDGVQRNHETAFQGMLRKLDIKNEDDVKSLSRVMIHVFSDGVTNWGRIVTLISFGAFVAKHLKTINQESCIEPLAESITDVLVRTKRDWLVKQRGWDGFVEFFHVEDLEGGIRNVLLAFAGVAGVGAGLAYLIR

Compared with `COc1ccc([C@H]2Cc3ccccc3[C@]23CC[C@@](Nc2cccc(Cl)c2)(C(=O)O)CC3)cc1` [Example 241, (1r,2′R,4R)-4-(3-chloroanilino)-2′-(4-methoxyphenyl)-2′,3′-dihydrospiro[cyclohexane-1,1′-indene]-4-carboxylic acid], `COc1ccc([C@@H]2Cc3ccccc3[C@]23CC[C@@](Nc2cccc(Cl)c2)(C(=O)O)CC3)cc1` [Example 240, (1r,2′S,4S)-4-(3-chloroanilino)-2′-(4-methoxyphenyl)-2′,3′-dihydrospiro[cyclohexane-1,1′-indene]-4-carboxylic acid] is 20-fold lower in Ki: 4350 nM for the first, 217 nM for the second. The second binds more tightly here.

Going from `O=C(O)[C@]1(Nc2cccc(Br)c2)CC[C@@]2(CC1)C(=O)N(Cc1ccccc1)c1ccccc12` [Example 13, (1r,4r)-1′-benzyl-4-(3-bromoanilino)-2′-oxo-1′,2′-dihydrospiro[cyclohexane-1,3′-indole]-4-carboxylic acid] to `CN1c2ccccc2C2(CCC(Nc3cccc(Br)c3)(C(=O)O)CC2)C1CCc1ccccc1` (single isomer, unassigned) [Example 25, 4-(3-bromoanilino)-1′-methyl-2′-(2-phenylethyl)-1′,2′-dihydrospiro[cyclohexane-1,3′-indole]-4-carboxylic acid], the Ki falls from 7080 nM to 887 nM (8-fold).

Going from `O=C(O)[C@]1(Nc2cccc(Cl)c2)CC[C@]2(CC1)C(COCc1ccccc1)=Cc1ccccc12` [Example 179, (1s,4s)-2′-[(benzyloxy)methyl]-4-(3-chloroanilino)spiro[cyclohexane-1,1′-indene]-4-carboxylic acid] to `O=C(O)[C@]1(Nc2cccc(Cl)c2)CC[C@]2(CC1)C(c1ccoc1)=Cc1ccccc12` [Example 329, (1s,4s)-4-(3-chloroanilino)-2′-(furan-3-yl)spiro[cyclohexane-1,1′-indene]-4-carboxylic acid], the Ki rises from 506 nM to 1650 nM (3.3-fold). The first binds more tightly here.

First: O=C(O)[C@]1(Nc2cccc(Cl)c2)CC[C@@]2(CC1)c1ccccc1CC2CCCOc1ccc2c(c1)OCO2 (stereo partly drawn) [Example 428, (1r,4r)-2′-{3-[(2H-1,3-benzodioxol-5-yl)oxy]propyl}-4-(3-chloroanilino)-2′,3′-dihydrospiro[cyclohexane-1,1′-indene]-4-carboxylic acid]
Second: Cc1c[nH]c2nccc(OCCCC3Cc4ccccc4[C@]34CC[C@@](Nc3cccc(Cl)c3)(C(=O)O)CC4)c12 (stereo partly drawn) [Example 458, (1r,4r)-4-(3-chloroanilino)-2′-{3-[(3-methyl-1H-pyrrolo[2,3-b]pyridin-4-yl)oxy]propyl}-2′,3′-dihydrospiro[cyclohexane-1,1′-indene]-4-carboxylic acid]
The Ki of the first is 3.6-fold higher: 393 nM for the first, 110 nM for the second.

`Cc1ccc(C2Cc3ccccc3[C@]23CC[C@@](Nc2cccc(Cl)c2)(C(=O)O)CC3)cc1` (single isomer, unassigned) [Example 307, (1r,4r)-4-(3-chloroanilino)-2′-(4-methylphenyl)-2′,3′-dihydrospiro[cyclohexane-1,1′-indene]-4-carboxylic acid] and `O=C(O)[C@]1(Nc2cccc(Cl)c2)CC[C@@]2(CC1)c1ccccc1CC2c1ccc(Cl)cc1` (single isomer, unassigned) [Example 320, (1r,4r)-4-(3-chloroanilino)-2′-(4-chlorophenyl)-2′,3′-dihydrospiro[cyclohexane-1,1′-indene]-4-carboxylic acid] are within 1.5-fold of each other in Ki: 9170 nM for the first, 6860 nM for the second.

Going from `COc1cccc(C2Cc3ccccc3[C@]23CC[C@@](Nc2cccc(Cl)c2)(C(=O)O)CC3)c1Cl` (single isomer, unassigned) [Example 291, (1r,4r)-4-(3-chloroanilino)-2′-(2-chloro-3-methoxyphenyl)-2′,3′-dihydrospiro[cyclohexane-1,1′-indene]-4-carboxylic acid] to `COc1ccc(C)c(C2Cc3ccccc3[C@]23CC[C@@](Nc2cccc(Cl)c2)(C(=O)O)CC3)c1` (single isomer, unassigned) [Example 271, (1r,4r)-4-(3-chloroanilino)-2′-(5-methoxy-2-methylphenyl)-2′,3′-dihydrospiro[cyclohexane-1,1′-indene]-4-carboxylic acid], the Ki rises from 2540 nM to 12500 nM (4.9-fold). The first binds more tightly here.

Compared with `COc1ccc(C2=Cc3ccccc3[C@]23CC[C@@](Nc2cccc(Cl)c2)(C(=O)O)CC3)c(C)c1` [Example 229, (1s,4s)-4-(3-chloroanilino)-2′-(4-methoxy-2-methylphenyl)spiro[cyclohexane-1,1′-indene]-4-carboxylic acid], `COc1cc(OC)cc(C2=Cc3ccccc3C23CCC(Nc2cccc(Br)c2)(C(=O)O)CC3)c1` (single isomer, unassigned) [Example 237, 4-(3-bromoanilino)-2′-(3,5-dimethoxyphenyl)spiro[cyclohexane-1,1′-indene]-4-carboxylic acid] is 66-fold higher in Ki: 1340 nM for the first, 89000 nM for the second.

Going from `COc1ccc(C2Cc3ccccc3[C@]23CC[C@@](Nc2ccccc2)(C(=O)O)CC3)c(C)c1` (single isomer, unassigned) [Example 256, (1r,4r)-4-anilino-2′-(4-methoxy-2-methylphenyl)-2′,3′-dihydrospiro[cyclohexane-1,1′-indene]-4-carboxylic acid] to `COc1cc(Cl)cc(C2Cc3ccccc3[C@]23CC[C@@](Nc2cccc(Cl)c2)(C(=O)O)CC3)c1` (single isomer, unassigned) [Example 348, (1r,4r)-4-(3-chloroanilino)-2′-(3-chloro-5-methoxyphenyl)-2′,3′-dihydrospiro[cyclohexane-1,1′-indene]-4-carboxylic acid], the Ki falls from 24200 nM to 10600 nM (2.3-fold).

Going from `O=C(O)[C@]1(Nc2cccc(Cl)c2)CC[C@@]2(CC1)c1ccccc1CC2CCCOc1n[nH]c2c1CCCC2` (stereo partly drawn) [Example 433, (1r,4r)-4-(3-chloroanilino)-2′-{3-[(4,5,6,7-tetrahydro-1H-indazol-3-yl)oxy]propyl}-2′,3′-dihydrospiro[cyclohexane-1,1′-indene]-4-carboxylic acid] to `CC(F)(COc1ccnc2c1CCC2)CC1Cc2ccccc2[C@]12CC[C@@](Nc1cccc(Cl)c1)(C(=O)O)CC2` (stereo partly drawn) [Example 607, (1r,4r)-4-(3-chloroanilino)-2′-{3-[(6,7-dihydro-5H-cyclopenta[b]pyridin-4-yl)oxy]-2-fluoro-2-methylpropyl}-2′,3′-dihydrospiro[cyclohexane-1,1′-indene]-4-carboxylic acid], the Ki falls from 1750 nM to 164 nM (11-fold).

Compared with `CN(CCc1ccccc1)C(=O)C1Cc2ccccc2[C@]12CC[C@@](Nc1cccc(Cl)c1)(C(=O)O)CC2` (single isomer, unassigned) [Example 407, (1r,4r)-4-(3-chloroanilino)-2′-[methyl(2-phenylethyl)carbamoyl]-2′,3′-dihydrospiro[cyclohexane-1,1′-indene]-4-carboxylic acid], `O=C(O)C1(Nc2cccc(Br)c2)CCC2(CC1)c1ccccc1CC2CCCc1ccccc1` (single isomer, unassigned) [Example 150, (1r,4r)-4-(3-bromoanilino)-2′-(3-phenylpropyl)-2′,3′-dihydrospiro[cyclohexane-1,1′-indene]-4-carboxylic acid] is 6.1-fold lower in Ki: 1370 nM for the first, 226 nM for the second.

With `Cc1ccc(S(=O)(=O)N2Cc3ccccc3C23CCC(Nc2cccc(Cl)c2)(C(=O)O)CC3)cc1` (single isomer, unassigned) [Example 29, 4-(3-chloroanilino)-2′-(4-methylbenzene-1-sulfonyl)-2′,3′-dihydrospiro[cyclohexane-1,1′-isoindole]-4-carboxylic acid] the Ki was 15800 nM.
